Experimental data reported in patent publication US9999601B2, “Composition and method for inhibition of nerve transmission” (NEUROQUEST INC., priority 2007, dated 2018).
Entries after “also recorded” stand apart in the source; their conditions may differ.

Experiments:
[1] = target: delayed rectifier current (Ikv), specifically Ikv 1.5 subtype (Homo sapiens, UniProt P22460); experiment: Whole cell patch clamp recordings (K+ channels); assay type: cell-based; conditions: for inhibition of delayed rectifying potassium channels (in words): 10 ppm (10 mcmol or 10 ppm); for percent inhibition of the delayed rectifier potassium current: at a concentration of Geranium oil that gave 40% inhibition; for inhibition of delayed rectifying potassium channels, comparison in words: concentration not given
Protocol: Whole cell patch clamp recordings (Axopatch 200B) were made using borosilicate patch pipettes of resistance 3-8 MΩ with an intracellular solution utilizing potassium chloride as the current carrier. Current clamp recording were conducted holding the membrane potential at −60 mV to characterize the firing property of the cells. Voltage clamp was performed to investigate the delayed rectifier current (Ikv), specifically Ikv 1.5 subtype. Statistical significance was assessed using ANOVA followed by Duncan's multiple-range test with P<0.05 taken as indicating significance. […] A synthetic blend of geranium oil containing proportions of geraniol and citronellol similar to natural geranium oil, but with other components removed, was compared to the following ratios of geraniol:citronellol; 2:8, 3:7, 4:6 and geranium oil. The synthetic blend of geranium oil gave a 50% inhibition of the delayed rectifying potassium channel current compared to a 40% inhibition for natural geranium oil.

[2] = system: mouse hippocampal brain slice neurons (cortical neuron); experiment: Patch clamp electrophysiological studies of mouse hippocampal slices; assay type: cell-based; conditions: for inhibition of nerve transmission (in words): animal cortical nerve cells and dorsal root ganglion cells; for membrane currents, current-voltage relation (in words): bath-applied, 10 mV steps from −110 to −20 mV, FIG. 1, FIG. 2A-C
Protocol: Studies were conducted on mouse hippocampal brain slice preparations. In terms of the slice preparations, […] coronal brain slices were prepared from animals housed in a 12 hour light (ZT 0-12):12 hour dark (ZT 12-24) environment. Animals were anesthetized with isoflurane, decapitated, the brain rapidly removed and placed in ice cold, oxygenated (95% 02:5% C02), bicarbonate-buffered artificial cerebral spinal fluid (ACSF). A 1 cm^2 block of brain tissue containing the hippocampi was glued to a cutting surface and coronal slices were prepared using a Leica VT1000S microtome (Leica Microsystems). All slices were left to equilibrate for approximately one hour prior to the transfer to a recording chamber. Once transferred to the chamber, slices were continuously superfused with oxygenated ACSF at a rate of 3 ml/min @30° C. and recordings are generally made for the next 6-12 hours. Patch microelectrodes (5-8MΩ) made from borosilicate glass (Garner Glass Co.) and filled with K^+based internal patch solution composed of: (in mM) 120 K-acetate, 40 HEPES, 10 EGTA, 6 MgCl2, nystatin (450 μg/ml) or gramicidin B (5 μg/ml) and pluronic acid F127.
The perforated patch recording technique and will be used (Korn & Horn, 1989) and viable Hippocampal neurons were visually targeted using Infrared Differential Interference Contrast (IR-DIC) microscopy using a Leica DM LFSA scope. […] Recordings were made from 3 different patch rigs equipped with either […] patch clamp amplifiers interfaced via a Digidata 1322A to a PC computer or on, in terms of the studies performed on dissociated DRG neurons, a Zeiss Axoscop 200 inverted microscope equipped with an Axopatch 200B/Digidata 1322A using Pclamp 9.0 and Axoscope 9 software.
Test compounds were bath-applied by superfusion to examine for changes in excitability and/or attenuation of ion channels and the effects of compounds on evoked synaptic responses. Stimulating electrodes (concentric or bipolar) were placed within the slices and in accordance with the well known fiber tract pathways of passage for the
Superimposed responses to a series of 10 mV steps (250 ms) ranged from −110 to −20 mV are shown, (A) in control condition, (B) in presence of geraniol, and (C) after washout of the drug.
Typical response of a cortical neuron following a depolarizing current pulse of 0.4 nA is shown in FIGS. 2D, 2E and 2F, (D) in control condition, (E) in presence of geraniol, and (F) after recovery.
Mean current-voltage plots for 6 cortical neurons are plotted in FIG. 1.
Samples 1, 2 and 6 are examples of naturally-derived geranium oils; sample 3 is the synthetic composition as set out in Table 1, sample 4 is pure geraniol, sample 5 is pure citronellol and sample 4+5 is 50:50 (by volume) combination of geraniol and citronellol. Net current represents the difference between current measured in control condition and in presence of tested compound, in response to the same voltage step.

post herpetic neuralgia = experiment: Case study, post herpetic neuralgia, topical pure geraniol; assay type: in vivo, human; conditions: over 30 minutes after topical application; one subject
Excerpt: person, Ht 68 inches, Weight 162 lb. BMI 24.7. History of shingles 4 years prior to study with residual pain (post herpetic neuralgia). The subject tried Neurontin™ (Pfizer, U.S.) for 1 week with only some help and quit 3-4 years prior to this study.
They had moderate pain that made it hard to concentrate on things other than the pain. […] They could sleep, but had to keep changing positions to do so. They described the post-herpetic neuralgia as the worst thing to have happened to […]. The subject's pain decreased by 78% with pure geraniol over the course of 30 minutes after topical application as measured on a standard visual analog scale.

post-herpetic neuralgia = experiment: Human screening of synthetic geranium oil and geraniol in neuropathic pain (post-herpetic neuralgia); assay type: in vivo; conditions: topical pure geraniol, human neuropathic pain sufferers
Protocol: A synthetic blend of geranium oil (Table 1) was also tested in a panel of human neuropathic pain sufferers known to respond to naturally derived geranium oil. The geranium oil was topically applied in therapeutically effective amounts to areas of the human body affected with symptoms of neuropathic pain. Dosage amounts depended on the size of the patient's affected areas. […] Once administered, a typical positive response is a significant reduction in pain, often in minutes. A significant number of patients in the panel of neuropathic pain sufferers preferred the pain relieving effects of the synthetic blend of geranium oil, with known purified constituents, over the natural geranium oil.
Since natural geranium oil relieves neuropathic pain and inhibits the delayed rectifying potassium channel, and since synthetic geranium oil, geraniol, and citronellol all inhibit the delayed rectifying potassium channel, synthetic geranium oil and geraniol were tested on patients with post-herpetic neuralgia. A synthetic blend of geranium oil was tested in patients with post-herpetic neuralgia that were positive responders to natural geranium oil. […] Pure geraniol was then tested in these subjects.

Sequence of delayed rectifier current (Ikv), specifically Ikv 1.5 subtype (P22460 whole entry): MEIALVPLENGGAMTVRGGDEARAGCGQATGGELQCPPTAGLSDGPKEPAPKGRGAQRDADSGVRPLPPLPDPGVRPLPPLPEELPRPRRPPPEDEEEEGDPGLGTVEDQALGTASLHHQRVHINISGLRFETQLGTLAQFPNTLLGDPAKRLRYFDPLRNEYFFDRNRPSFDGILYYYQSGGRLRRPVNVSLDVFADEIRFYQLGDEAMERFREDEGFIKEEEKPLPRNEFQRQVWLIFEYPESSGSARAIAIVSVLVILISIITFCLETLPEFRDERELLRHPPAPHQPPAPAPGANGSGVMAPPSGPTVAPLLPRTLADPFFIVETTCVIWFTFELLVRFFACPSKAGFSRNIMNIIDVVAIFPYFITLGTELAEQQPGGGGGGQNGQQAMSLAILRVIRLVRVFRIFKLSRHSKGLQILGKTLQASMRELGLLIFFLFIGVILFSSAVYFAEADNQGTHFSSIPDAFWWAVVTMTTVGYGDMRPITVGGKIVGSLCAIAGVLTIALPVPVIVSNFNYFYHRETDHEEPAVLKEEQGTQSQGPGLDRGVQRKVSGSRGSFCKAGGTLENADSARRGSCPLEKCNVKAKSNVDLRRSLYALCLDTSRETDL

Compound	inhibition of delayed rectifying potassium channels (in words) [1]	percent inhibition of the delayed rectifier potassium current [1] [%]	inhibition of delayed rectifying potassium channels, comparison in words [1]	inhibition of nerve transmission (in words) [2]	further results
C=C(C)C1CC=C(C)C(=O)C1 (centres unmarked) [carvone, Carvone]	positive	22	–	–	–
CC(C)=CCCC(C)CCO (centres unmarked) [citronellol, 3,7-dimethyloct-6-en-1-ol]	positive	27	highest amount of inhibition; also recorded: highest activity	effectively inhibit nerve transmission	–
CC(C)=CCC/C(C)=C/CO [geraniol, 2,6-Octadien-1-ol, 3,7-dimethyl-, (2E)-]	positive	26	highest amount of inhibition; also recorded: highest activity	effectively inhibit nerve transmission	decrease of pain on visual analog scale (post herpetic neuralgia): 78%; neuropathic pain relief (in words) (post-herpetic neuralgia): almost immediate pain relief; also recorded: greatest effect on neuropathic pain relief; membrane currents, current-voltage relation (in words) [2]: reduction in the membrane current amplitude; also recorded: reduction of membrane currents; membrane currents, current-voltage relation (in words) ([2]; listed as geraniol (test compound #4)): reduction of membrane currents; membrane currents, current-voltage relation (in words) ([2]; listed as sample #4 (Geraniol)): reduction of membrane currents; net current reduction, rank among tested samples ([2]; most negative voltage step (−110 mV), FIG. 3): greatest inhibition; action potentials (in words) ([2]; voltage steps or depolarizing current pulse of 0.4 nA, FIG. 2): inhibition of action potential
C=CC(C)(O)CCC=C(C)C (centres unmarked) [linalool, Linalool]	positive	18	–	–	–
CC(C)[C@@H]1CC[C@@H](C)CC1=O [menthone, Menthone]	positive	22	–	–	–
CC(C)=CC1CC(C)CCO1 (centres unmarked) [rose oxide, Rose Oxide]	positive	14	–	–	–
